From patent US5075289A, “9-R-azacyclic erythromycin antibiotics” (priority 1988, dated 1991)
Values after ≈ are worked out from the molar mass of the structure shown. Where two headings read alike, the source gives them in different places.

Experiments:
Assay in all cases: In vitro antibacterial activity, agar dilution MIC
Type in all cases: cell-based
[1] = test system: Staphylococcus aureus CMX 503A; conditions: CMX503A, S. aureus CMX 503A, Brain Heart Infusion agar, 20-24 hours, read-out: MIC
Procedure, shortened: (§1)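 Test compound serially diluted in Brain Heart Infusion agar across twelve plates; inocula of 1:100 dilutions (1:10 for slow growers such as Streptococcus) applied by replicator. Plates incubated 20-24 h at 35°-37° C. MIC taken as lowest concentration giving no growth, slight haze or sparse isolated colonies versus drug-free control.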

[2] = test system: Streptococcus pyogenes 2548 INDUC; conditions: S. pyogenes 2548 INDUC, Brain Heart Infusion agar, 20-24 hours, read-out: MIC
Procedure, shortened: as §1

[3] = test system: Haemophilus influenzae SOL AMP R; conditions: H. influenzae SOL AMP R
Procedure, shortened: as §1

Escherichia coli SS = conditions: read-out: MIC
Procedure, shortened: as §1

[4] = test system: Haemophilus influenzae 747C; conditions: H. influenzae 747C
Procedure, shortened: as §1

[5] = test system: Haemophilus influenzae 751; conditions: H. influenzae 751
Procedure, shortened: as §1

[6] = test system: Enterococcus faecium ATCC 8043
Procedure, shortened: as §1

[7] = test system: Streptococcus pyogenes EES61; conditions: S. pyogenes EES61, Brain Heart Infusion agar, 20-24 hours, read-out: MIC
Procedure, shortened: as §1

[8] = test system: Haemophilus influenzae 566A; conditions: H. influenzae 566A
Procedure, shortened: as §1

[9] = test system: Haemophilus influenzae ATCC 10211; conditions: ATCC10211, H. influenzae ATCC 10211
Procedure, shortened: as §1

[10] = test system: Haemophilus influenzae 504; conditions: H. influenzae 504
Procedure, shortened: as §1

[11] = test system: Haemophilus influenzae 588A; conditions: H. influenzae 588A
Procedure, shortened: as §1

[12] = test system: Haemophilus influenzae 519A; conditions: H. influenzae 519A
Procedure, shortened: as §1

[13] = test system: Staphylococcus aureus CMX 553; conditions: CMX553, S. aureus CMX 553, Brain Heart Infusion agar, 20-24 hours, read-out: MIC
Procedure, shortened: as §1

Escherichia coli DC-2 = conditions: DC2
Procedure, shortened: as §1

[14] = test system: Streptococcus bovis A5169
Procedure, shortened: as §1

[15] = test system: Haemophilus influenzae ATCC 9795; conditions: ATCC9795, H. influenzae ATCC 9795
Procedure, shortened: as §1

[16] = test system: Staphylococcus aureus ATCC 6538P; conditions: ATCC6538P
Procedure, shortened: as §1

[17] = test system: Streptococcus agalactiae CMX 508; conditions: CMX508, S. agalactiae CMX 508, Brain Heart Infusion agar, 20-24 hours, read-out: MIC
Procedure, shortened: as §1

[18] = test system: Staphylococcus epidermidis 3519; conditions: S. epidermidis 3519, Brain Heart Infusion agar, 20-24 hours, read-out: MIC
Procedure, shortened: as §1

[19] = test system: Micrococcus luteus ATCC 9341; conditions: ATCC9341, M. luteus ATCC 9341, Brain Heart Infusion agar, 20-24 hours, read-out: MIC
Procedure, shortened: as §1

[20] = test system: Haemophilus influenzae 667A; conditions: H. influenzae 667A
Procedure, shortened: as §1

[21] = test system: Haemophilus influenzae 1177; conditions: H. influenzae 1177
Procedure, shortened: as §1

[22] = test system: Haemophilus influenzae ATCC 19418; conditions: ATCC19418, H. influenzae ATCC 19418
Procedure, shortened: as §1

Escherichia coli H560 = conditions: H560
Procedure, shortened: as §1

[23] = test system: Streptococcus pyogenes 930 CONST; conditions: 930CONST
Procedure, shortened: as §1

[24] = test system: Staphylococcus aureus A5177; conditions: S. aureus A5177, Brain Heart Infusion agar, 20-24 hours, read-out: MIC
Procedure, shortened: as §1

Staphylococcus aureus 45 = test system: Staphylococcus aureus 45
Procedure, shortened: as §1

[25] = test system: Staphylococcus aureus CMX 686B; conditions: CMX686B, S. aureus CMX 686B, Brain Heart Infusion agar, 20-24 hours, read-out: MIC
Procedure, shortened: as §1

[26] = test system: Haemophilus influenzae 503B; conditions: H. influenzae 503B
Procedure, shortened: as §1

Escherichia coli Juhl = test system: Escherichia coli Juhl
Procedure, shortened: as §1

[27] = test system: Haemophilus influenzae 1435; conditions: H. influenzae 1435
Procedure, shortened: as §1

[28] = test system: Haemophilus influenzae SPK AMP R; conditions: H. influenzae SPK AMP R
Procedure, shortened: as §1

[29] = test system: Haemophilus influenzae 632A; conditions: H. influenzae 632A
Procedure, shortened: as §1

[30] = test system: Micrococcus luteus ATCC 4698
Procedure, shortened: as §1

In the case of `CC[C@H]1OC(=O)[C@H](C)[C@@H](O[C@H]2C[C@@](C)(OC)[C@@H](O)[C@H](C)O2)[C@H](C)[C@@H](O[C@@H]2O[C@H](C)C[C@H](N(C)C)[C@H]2O)[C@](C)(O)C[C@@H](C)[C@@H](N2CCCCC2)[C@H](C)[C@@H](O)[C@]1(C)O` [Example 5], the MIC [1] is reported as 0.39 µg/mL (≈ 0.486 µM), the MIC [2] is reported as 6.2 µg/mL (≈ 7.72 µM) and the MIC [3] is reported as 1 µg/mL (≈ 1.25 µM). It also gave an MIC (Escherichia coli SS; E. coli SS, Brain Heart Infusion agar, 20-24 hours) of 0.39 µg/mL (≈ 0.486 µM), an MIC [4] of 1 µg/mL (≈ 1.25 µM) and an MIC [5] of 4 µg/mL (≈ 4.98 µM). It also gave an MIC ([6]; ATCC8043, E. faecium ATCC 8043, Brain Heart Infusion agar, 20-24 hours, read-out: MIC) of 0.1 µg/mL (≈ 0.125 µM), an MIC [7] of 0.05 µg/mL (≈ 0.0623 µM) and an MIC [8] of 2 µg/mL (≈ 2.49 µM). For the same molecule, the MIC [9] was 1 µg/mL (≈ 1.25 µM), the MIC [10] was 1 µg/mL (≈ 1.25 µM) and the MIC [11] was 1 µg/mL (≈ 1.25 µM). For the same molecule, the MIC [12] was 0.5 µg/mL (≈ 0.623 µM), the MIC [13] was 0.39 µg/mL (≈ 0.486 µM) and the MIC (Escherichia coli DC-2) was 50 µg/mL (≈ 62.3 µM). The MIC ([14]; S. bovis A5169, Brain Heart Infusion agar, 20-24 hours, read-out: MIC) was 0.1 µg/mL (≈ 0.125 µM), the MIC [15] was 1 µg/mL (≈ 1.25 µM) and the MIC ([16]; S. aureus ATCC 6538P, Brain Heart Infusion agar, 35-37° C., 20-24 hours, read-out: MIC) was 0.39 µg/mL (≈ 0.486 µM). It also gave an MIC [17] of 0.05 µg/mL (≈ 0.0623 µM), an MIC [18] of 0.39 µg/mL (≈ 0.486 µM) and an MIC [19] of 0.1 µg/mL (≈ 0.125 µM). For the same molecule, the MIC [20] was 1 µg/mL (≈ 1.25 µM), the MIC [21] was 0.25 µg/mL (≈ 0.311 µM) and the MIC [22] was 2 µg/mL (≈ 2.49 µM). For the same molecule, the MIC (Escherichia coli H560) was 25 µg/mL (≈ 31.1 µM), the MIC [23] was greater than 100 µg/mL and the MIC [24] was 6.2 µg/mL (≈ 7.72 µM). For the same molecule, the MIC (Staphylococcus aureus 45; S. aureus 45, Brain Heart Infusion agar, 20-24 hours, read-out: MIC) was 0.78 µg/mL (≈ 0.971 µM), the MIC [25] was 0.39 µg/mL (≈ 0.486 µM) and the MIC [26] was 0.5 µg/mL (≈ 0.623 µM). For the same molecule, the MIC (Escherichia coli Juhl) was 50 µg/mL (≈ 62.3 µM), the MIC [27] was 0.5 µg/mL (≈ 0.623 µM) and the MIC [28] was 1 µg/mL (≈ 1.25 µM). For the same molecule, the MIC [29] was 1 µg/mL (≈ 1.25 µM) and the MIC ([30]; ATCC4698, M. luteus ATCC 4698, Brain Heart Infusion agar, 20-24 hours, read-out: MIC) was 0.2 µg/mL (≈ 0.249 µM).
`CC[C@H]1OC(=O)[C@H](C)[C@@H](O[C@H]2C[C@@](C)(OC)[C@@H](O)[C@H](C)O2)[C@H](C)[C@@H](O[C@@H]2O[C@H](C)C[C@H](N(C)C)[C@H]2O)[C@](C)(O)C[C@@H](C)[C@@H](N2CCOCC2)[C@H](C)[C@@H](O)[C@]1(C)O` [Example 19] was tested, and the MIC [1] was 0.39 µg/mL (≈ 0.484 µM), the MIC [2] was 6.2 µg/mL (≈ 7.7 µM) and the MIC [3] was 2 µg/mL (≈ 2.48 µM). It also gave an MIC (Escherichia coli SS) of 0.2 µg/mL (≈ 0.248 µM), an MIC [4] of 2 µg/mL (≈ 2.48 µM) and an MIC [5] of 8 µg/mL (≈ 9.94 µM). The MIC ([6]; ATCC8043) was 0.1 µg/mL (≈ 0.124 µM), the MIC [7] was 0.05 µg/mL (≈ 0.0621 µM) and the MIC [8] was 4 µg/mL (≈ 4.97 µM). It also gave an MIC [9] of 2 µg/mL (≈ 2.48 µM), an MIC [10] of 4 µg/mL (≈ 4.97 µM) and an MIC [11] of 2 µg/mL (≈ 2.48 µM). It also gave an MIC [12] of 2 µg/mL (≈ 2.48 µM), an MIC [13] of 0.39 µg/mL (≈ 0.484 µM) and an MIC (Escherichia coli DC-2) of 50 µg/mL (≈ 62.1 µM). It also gave an MIC [14] of 0.1 µg/mL (≈ 0.124 µM), an MIC [15] of 4 µg/mL (≈ 4.97 µM) and an MIC [16] of 0.39 µg/mL (≈ 0.484 µM). It also gave an MIC [17] of 0.05 µg/mL (≈ 0.0621 µM), an MIC [18] of 0.39 µg/mL (≈ 0.484 µM) and an MIC [19] of 0.05 µg/mL (≈ 0.0621 µM). The MIC [20] was 4 µg/mL (≈ 4.97 µM), the MIC [21] was 0.25 µg/mL (≈ 0.311 µM) and the MIC [22] was 4 µg/mL (≈ 4.97 µM). It also gave an MIC (Escherichia coli H560) of 6.2 µg/mL (≈ 7.7 µM), an MIC [23] greater than 100 µg/mL and an MIC [24] of 6.2 µg/mL (≈ 7.7 µM). For the same molecule, the MIC (Staphylococcus aureus 45; 45) was 0.39 µg/mL (≈ 0.484 µM), the MIC [25] was 0.39 µg/mL (≈ 0.484 µM) and the MIC [26] was 1 µg/mL (≈ 1.24 µM). It also gave an MIC (Escherichia coli Juhl) of 50 µg/mL (≈ 62.1 µM), an MIC [27] of 1 µg/mL (≈ 1.24 µM) and an MIC [28] of 4 µg/mL (≈ 4.97 µM). It also gave an MIC [29] of 4 µg/mL (≈ 4.97 µM) and an MIC ([30]; ATCC4698, read-out: MIC) of 0.2 µg/mL (≈ 0.248 µM).
